“Also recorded” adds a separate entry of the source.
Assays:
[1] = system: Pseudomonas aeruginosa ATCC 27853; test: MIC determination and synergy testing (Kull synergy index), microplate; assay type: cell-based; conditions: MP: MIC alone (QB) or conc. in combination with CHDM (b); plate 146E; day 1
Description: (§1) The test cultures are listed in Table 7 along with the incubation temperatures used for growth and minimum inhibitory concentration (MIC) testing. […] C. albicans was cultured in Sabouraud dextrose broth (SDB) for approximately 44-52 hours for preparation of inoculum. A. niger was cultured on Sabouraud dextrose agar (SDA) for 3-4 days until there was confluent growth and visible spore formation. Spores were harvested from the SDA plates by flooding the surface of the plate with 5-10 mL of phosphate-buffered saline (PBS) and gently spreading the liquid across the surface of the plate with a sterile T-shaped plastic spreader (Copan Diagnostics) until there was a well-mixed suspension of spores. The resulting spore suspension was collected using a serological pipette and stored at 2-8° C. until use.
(§2) Inoculum concentration was determined by dilution plating of the cultures or spore suspension. A serial dilution in PBS was made to 10^−8 for the bacterial cultures or 10^−5 for the fungal cultures. Fifty or 100 μL of the final dilution was spread on two Trypticase-soy agar (TSA) plates for bacteria or two SDA plates for fungi. After 24 to 48 hours plates were counted and the concentrations used in each experiment were calculated.
(§3) The antimicrobial agents tested for synergy along with the respective diluents and working stock solution concentrations are shown below. For determination of MIC ranges, individual antimicrobial agent stock solutions were added to sterile medium to yield the highest level test concentrations, and then serially diluted in the medium to prepare the range of test concentrations. For synergy testing individual test concentrations were prepared in sterile medium, and then blended to form the desired combinations.
(§4) MICs were determined using a high-throughput microplate method. Individual antimicrobial agents were added to TSB (pH 7.3) for bacterial testing or SDB (pH 5.6) for fungal testing at the highest concentration to be tested. A serial dilution series was prepared at a dilution ratio of 1:1.3333 such that a one log range was covered in nine dilutions. Two-hundred microliters of the diluted antimicrobial agents were dispensed into four wells each of a sterile, 96-well, flat-bottom microplate (Nalge Nunc International). Four additional wells of the highest concentration were dispensed to serve as uninoculated high-level controls. Eight additional wells containing only broth medium were also prepared, four to serve as negative controls and four as positive controls. Three wells of each antimicrobial agent dilution were inoculated with one of the test strains in Table 7. The final well of each antimicrobial agent dilution was left uninoculated to serve as a control (and means of compensating) for any absorbance/turbidity due to the test compounds.
(§5) Microplates were inoculated using the cultures or spore suspensions prepared as described above. The S. aureus cultures were used undiluted, while the E. coli and P. aeruginosa cultures were used either undiluted or after a 1:2 dilution in sterile TSB. The C. albicans cultures were used either undiluted or following a 2-fold concentration by centrifugation. One of two means of inoculation was used to deliver a final concentration of approximately 10^5 colony-forming units (CFU)/mL of C. albicans, 10^5 spores/mL of A. niger, or 10^6 CFU/mL of bacteria. The primary method used a stainless steel pin replicator (Nalge Nunc International) mounted on a hand-operated bench-top press (Schmidt Technology Corporation) fitted with a custom-built microplate holder to dispense one microliter of each inoculum from a “master” plate containing 50-100 μL of culture into the wells of the test plate. The pin replicator was sterilized before and between inoculations by immersing in ethanol and flaming. The alternative method of inoculation was by directly pipetting 20 μL of a 1:20 dilution of each culture or spore suspension into the appropriate wells of the test plates.

[2] = system: Staphylococcus aureus ATCC 25923; test: as above; assay type: cell-based; conditions: MP: MIC alone (QB) or conc. in combination with CHDM (b), plate 166D
Description: as §1, §2, §3, §4, §5

[3] = system: Candida albicans; test: Test for adequate preservation in skin cream formulation (microorganism counts); assay type: cell-based; conditions: skin cream emulsion pH 6.75; concentration in label
Description: (§6) A test for adequate preservation was carried out in accordance with the European Pharmacopea (6.0) and United States Pharmacopea (5.1). The testing consisted of the inoculation of a skin cream formulation serving as an emulsion substrate. The skin cream formulation having a pH of 6.75 was as follows: […]
(§7) This skin cream was the emulsion substrate, which formed the base for all further experimentation.
(§8) For Examples 3.1 through 3.10, 390.0 g cream were weighed into a 600-ml beaker. The cream was stirred at room temperature while adding the ingredients specified in Table 51. Each sample was stirred for 2 hours, then placed in the refrigerator until inoculated.
(§9) For Examples 3.11 and 3.12, 179.4 g cream were weighed into a 400-ml beaker. The cream was stirred at room temperature while adding the specified ingredients.
(§10) The samples of Examples 3.1 through 3.10 were challenged with specific organisms (see Table 51) to produce a contamination of between 1.0×10^5 cfu/g and 1.0×10^6 cfu/g. The actual inoculation counts resulting from these challenges were immediately determined by diluting in sterile buffered water and (spread plate method) plating for enumeration.
(§11) Challenge organisms were prepared in Mueller-Hinton broth, allowed to grow for 72 hours at 35° C.+/−2° C., centrifuged at 2500 rpm for 5 minutes, and the supernatant broth was removed. The microbial pellet was then re-diluted with sterile buffered water to a turbidity that matched previous 1.0×10^8 cfu/g concentrations of that organism's specific growth curve.
(§12) The test emulsions were maintained within a specific temperature range optimal for the organisms; 35° C.+/2° C. for the bacteria and 22° C.+/−2° C. for the fungi, for the first three days. They were kept at ambient room temperature for the subsequent time periods.
(§13) Subculture samples of approximately 1 gram were taken for counts at 7, 14, and 30 days and incubated under optimal conditions and nutrition for no less than 5 days. Subcultures were diluted 1:2, 1:10, 1:100, . . . , 1:10,000 and plated using the spread plate method onto Plate Count Agar and onto SAB Dextrose Agar for the Candida and Aspergillus species; and incubated as follows: 35° C.+/−2° C. for the Plate Count Agar and 22° C.+/−2° C. for the SAB Dextrose plates of Candida albicans and Aspergillus niger. Negative results were not reported before 7 days incubation, and counts were performed after no less than 5 days incubation. Because of the high viscosity of the test emulsion, at least a 1:2 dilution was required to perform the spread plate subcultures. 0-30 counts represent a 1 to 2 dilution, numbers […] a 1:10 dilution; and the rest represent dilutions of 1:100, 1:1000, or 1:10,000. […]

[4] = system: Aspergillus niger; test: as above; assay type: cell-based; conditions: skin cream emulsion pH 6.75; concentration in label
Description: as §6, §7, §8, §9, §10, §11, §12, §13

[5] = system: Aspergillus niger ATCC 16404; test: MIC determination and synergy testing (Kull synergy index), microplate; assay type: cell-based; conditions: A. niger; plate 154C; day 3; MP and CHDM
Description: as §1, §2
The A. niger spore suspensions were concentrated to a level of 1-2×10^8 spores/mL by centrifugation and resuspension in a portion of the resulting supernatant.
as §3, §4
Microplates were inoculated using the cultures or spore suspensions prepared as described above. The S. aureus cultures were used undiluted, while the E. coli and P. aeruginosa cultures were used either undiluted or after a 1:2 dilution in sterile TSB. The C. albicans cultures were used either undiluted or following a 2-fold concentration by centrifugation. One of two means of inoculation was used to deliver a final concentration of approximately 10^5 colony-forming units (CFU)/mL of C. albicans, 10^5 spores/mL of A. niger, or 10^6 CFU/mL of bacteria. The primary method used a stainless steel pin replicator (Nalge Nunc International) mounted on a hand-operated bench-top press (Schmidt Technology Corporation) fitted with a custom-built microplate holder to dispense one microliter of each inoculum from a “master” plate containing 50-100 μL of culture into the wells of the test plate. The pin replicator was sterilized before and between inoculations by immersing in ethanol and flaming. […]

[6] = system: panel of five strains of microorganisms; test: MIC comparison of 1,1- and 1,4-CHDM (Example 6), statements over the panel; assay type: cell-based; conditions: MIC at 24, 48 and 72 hours
Description: The antimicrobial activities of 1,4-cyclohexanedimethanol (1,4-CHDM) and 1,1-cyclohexanedimethanol (1,1-CHDM) have been determined. […] MICs were individually calculated for three consecutive days with both 1,1-cyclohexanedimethanol and the 31% cis:69% trans mixture of 1,4-cyclohexanedimethanol. Both compounds were evaluated against a panel of five strains of microorganisms.
Strains P. aeruginosa, C. albicans, E. coli, A. niger and S. aureus were purchased from the American Type Culture Collection (Manassas, Va.). […] Absorbance measurements were taken with a TECAN GENios Pro microplate reader. […]
Each plate was covered and incubated at the appropriate temperature and turbidity as a measure of cell density was determined via absorbance measurement at 612 nm using a microplate reader. […] The raw data was exported into an Excel spreadsheet and the MIC values were determined and expressed as wt %. The absorbance of each inoculated CHDM well was retrieved by first subtracting out the average reading for each uninoculated well, then by comparison to a positive threshold to determine positive or negative status for growth. The positive threshold was calculated by multiplication of the average absorbance for the inoculated media-only wells by 0.05. The MIC was determined as the lowest test concentration resulting in all three replicate wells displaying values below the positive threshold.

[7] = Solubility in aqueous growth media; assay type: physicochemical
Excerpt: Final results have been summarized below in Table 59.

SMILES	QB/b [1]	QB/b ([2]; day 1)	QB/b ([2]; day 2)	Antimicrobial activity against Candida albicans in skin cream (in words) [3]	Antimicrobial activity against Aspergillus niger in skin cream (in words) [4]	QB/b: concentration of MP (MIC alone, or in the combination at an inhibitory concentration) [5]	SI (synergy index) [5]	Antimicrobial efficacy (MIC) compared with 1,4-CHDM (in words) [6]	Antimicrobial efficacy (MIC) compared with 1,4-CHDM (in words) ([6]; listed as 1,1-cyclohexanedimethanol)	Solubility [7]
COC(=O)c1ccc(O)cc1 [MP, Methylparaben, reference compound]	0.14	0.23	0.23	not at this low concentration	not at this low concentration	0.050 weight percent	1.00			
OCC1(CO)CCCCC1 [1,1-CHDM, 1,1-cyclohexanedimethanol]								significant improvement in efficacy over 1,4-CHDM; also recorded: lower MIC values; also recorded: improved efficacy over 1,4-CHDM	measurable increase in antimicrobial efficacy over that of 1,4-cyclohexanedimethanol; also recorded: Antimicrobial efficacy increased against four of the five test organisms	≤ 2.25 % (w/v)
